Test results published in ChEMBL document CHEMBL1158211, “Cyclic peptides from higher plants. 24.1 yunnanin C, a novel cyclic heptapeptide from Stellaria yunnanensis” (J Nat Prod, 1996).
In brackets after ≈: the same amount, converted by molar mass. Residues, ends and D or L forms follow the SMILES beside them.

Test system: P388
Experiment: Cytotoxicity against mouse P388 cells after 48 hrs by MTT assay
Assay type: functional, cell-based
Details: P388, 48 h

Row | SMILES | IC50
1 | O=C1CNC(=O)[C@H](Cc2ccc(O)cc2)NC(=O)CNC(=O)[C@@H]2CCCN2C(=O)[C@H](Cc2ccccc2)NC(=O)[C@@H]2CCCN2C(=O)CN1 [YUNNANIN A] (HELM PEPTIDE1{F.P.G.Y.G.G.P}$PEPTIDE1,PEPTIDE1,1:R1-7:R2$$$V2.0) | 2.1 µg/mL (≈ 3.11 µM)
2 | CC[C@H](C)[C@@H]1NC(=O)CNC(=O)[C@@H]2CCCN2C(=O)[C@H](CO)NC(=O)[C@H](Cc2ccc(O)cc2)NC(=O)[C@H](Cc2ccccc2)NC(=O)CNC1=O [YUNNANIN C] (HELM PEPTIDE1{F.Y.S.P.G.I.G}$PEPTIDE1,PEPTIDE1,1:R1-7:R2$$$V2.0) | 2.2 µg/mL (≈ 3.05 µM)
